According to patent US20150064107A1, “IMAGING AGENT” (King's College London, priority 2013, published 2015):
Entries after “also recorded” stand apart in the source; their conditions may differ.

Columns and labels:
[1] = In vivo PET/MRI imaging of the lymph node system after footpad injection; set-up: species or system mouse (C57BL/6); conditions: mouse, 6 hours post injection
Protocol: In vivo PET/MRI imaging of the lymph node (LN) system was carried out using a preclinical nanoScan® PET•MRI scanner with 1 T magnetic field (Mediso Ltd, H-1047, Budapest, Hungary), utilising ^18F-labelled CoxFe3-xO4@NaYF4(Yb, Er)-BP-PEG (10 K) or ^18F-labelled Fe3O4@NaYF4(Yb, Tm)-BP-PEG (2 K) NPIAs as probes. After injection of 20 μL of [^18F]-fluoride-labelled CoxFe3-xO4@NaYF4(Yb, Er)-BP-PEG solution containing 6.3 MBq radioactivity and 20 μg Fe into the rear right foot pad of a mouse (C57BL/6, female, 6-7 weeks old, 20 g), coregistered PET and MRI images were recorded 6 hours post injection. The most prominent signal was from the popliteal LN, which is the nearest draining LN from the injection point, and the next most prominent signal was from the medial iliac LN (FIG. 5a, 5c & 5d).
To further explore the potential value of these NPIAs, a more detailed lymph node study by PET/MRI imaging was undertaken, investigating the popliteal LN in response to an acute inflammatory stimulus in the foot. A solution of ^18F-labelled Fe3O4@NaYF4(Yb, Tm)-BP-PEG (20 μL, 4.5 MBq, 20 μg Fe) was injected into each of the two rear footpads of a female C57BL/6 mouse in which only the right leg was inflamed. […] A control experiment was carried out with [^18F]-fluoride but without NPs Fe3O4@NaYF4(Yb, Tm)-BP-PEG, under the same conditions. […]

[2] = Ex vivo fluorescent imaging of excised popliteal lymph nodes under 980 nm laser; format: in vivo, mouse (C57BL/6); conditions: multi-photon laser scanning microscope
Protocol: To further explore the potential value of these NPIAs, a more detailed lymph node study by PET/MRI imaging was undertaken, investigating the popliteal LN in response to an acute inflammatory stimulus in the foot. A solution of ^18F-labelled Fe3O4@NaYF4(Yb, Tm)-BP-PEG (20 μL, 4.5 MBq, 20 μg Fe) was injected into each of the two rear footpads of a female C57BL/6 mouse in which only the right leg was inflamed. […] A control experiment was carried out with [^18F]-fluoride but without NPs Fe3O4@NaYF4(Yb, Tm)-BP-PEG, under the same conditions. […] By MRI scanning prior to injection of the labellend NPs, no contrast difference was seen on MR images between the normal LN and the inflamed one. The popliteal lymph nodes on the inflamed side were dissected and viewed, together with the adjacent fatty tissue, with a Femtonics (Budapest, Hungary) Fem2D in vivo multi-photon laser scanning microscope under excitation of a 980 nm laser. […] Fluorescent NPIAs were also found inside cells of adjacent fat tissue of the inflamed popliteal LN.

In the case of [^18F]-fluoride, the “lymph node signal on PET (and MRI) images” value [1] is reported as “no contrast in lymph nodes; also recorded: did not show any signal at the lymph nodes” and the “fluorescence of excised inflamed popliteal lymph node” value [2] is reported as “faint granular fluorescence”.
